SMILES strings stand for the structures.

In this assay the target is T1, human plasma protein factor Xa (Homo sapiens, UniProt P00742).
T1 construct: measure proteolytic activity of the enzyme (factor Xa); purchased Haematologic Technologies (Essex Junction, Vt.); host or cells: human plasma
T1 sequence (P00742 235-488 limits assumed): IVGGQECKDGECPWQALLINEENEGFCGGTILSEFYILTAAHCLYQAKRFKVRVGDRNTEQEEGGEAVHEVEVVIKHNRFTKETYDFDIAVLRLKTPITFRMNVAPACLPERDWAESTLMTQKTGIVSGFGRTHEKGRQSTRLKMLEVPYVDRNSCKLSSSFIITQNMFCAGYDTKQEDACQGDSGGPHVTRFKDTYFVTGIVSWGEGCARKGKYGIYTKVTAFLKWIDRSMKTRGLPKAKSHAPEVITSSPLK
T1 sequence (P00742 41-179 partner limits assumed): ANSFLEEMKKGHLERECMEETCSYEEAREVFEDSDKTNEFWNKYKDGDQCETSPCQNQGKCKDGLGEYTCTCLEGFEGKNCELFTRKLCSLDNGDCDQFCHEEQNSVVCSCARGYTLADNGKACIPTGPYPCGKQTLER
Description: Factor Xa IC50 determination: cleavage of paranitroanilide substrate S-2765 in 96-well plates. The format is biochemical. To be noted: fXa 1 nM, S-2765 100 μM, Tris buffered saline pH 7.4, room temperature. The essentials:
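Initial rates of S-2765 (100 μM final) cleavage, read at 405 nm for 2 min, fitted with a four-parameter equation to give IC50. Enzyme: 1 nM human plasma fXa, 5 min room-temperature preincubation with inhibitor (0.01 nM–10 μM) in 20 mM Tris, 150 mM NaCl, 5 mM CaCl2, 0.1% BSA, 5% DMSO, pH 7.4; duplicates.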
One may read the IC50 as the concentration that inhibits the measured activity by half. The low end stands for greater potency in that assay, the high end for weaker potency in that assay. Compound `CN1CCN(c2ccc(C3=NOC(CNC(=O)c4ccc(Cl)s4)C3)cc2)C1=O` (stereo not drawn) [Example 245, 5-Chloro-thiophene-2-carboxylic acid {3-[4-(3-methyl-2-oxo-imidazolidin-1-yl)-phenyl]-4,5-dihydro-isoxazol-5-ylmethyl}-amide] displayed an IC50 of at most 0.1 µM.

With `O=C(NCC1CC(c2ccc(N3CCOCCC3=O)cc2)=NO1)c1ccc(Cl)s1` (stereo not drawn) [Example 246, 5-Chloro-thiophene-2-carboxylic acid {3-[4-(5-oxo-[1,4]oxazepan-4-yl)-phenyl]-4,5-dihydro-isoxazol-5-ylmethyl}-amide], the half-inhibitory concentration (IC50) is at most 0.1 µM.

In the case of `O=C(NCC1CC(c2ccc(Nc3ccncc3)cc2F)=NO1)c1ccc(Cl)s1` (stereo not drawn) [Example 247, 5-Chloro-thiophene-2-carboxylic acid {3-[2-fluoro-4-(pyridin-4-ylamino)-phenyl]-4,5-dihydro-isoxazol-5-ylmethyl}-amide], the IC50 was at most 0.1 µM.

`CN1CCCN(c2ccc(C3=NOC(CNC(=O)c4ccc(Cl)s4)C3)c(F)c2)CC1` (stereo not drawn) [Example 248, 5-Chloro-thiophene-2-carboxylic acid {3-[2-fluoro-4-(4-methyl-[1,4]diazepan-1-yl)-phenyl]-4,5-dihydro-isoxazol-5-ylmethyl}-amide]: the concentration for half-maximal inhibition (IC50) is at most 0.1 µM.

On to `O=C(NCC1CC(c2ccc(N3CCOCCC3=O)cc2F)=NO1)c1ccc(Cl)s1` (stereo not drawn) [Example 249, 5-Chloro-thiophene-2-carboxylic acid {3-[2-fluoro-4-(5-oxo-[1,4]oxazepan-4-yl)-phenyl]-4,5-dihydro-isoxazol-5-ylmethyl}-amide], for which the half-inhibitory concentration (IC50) was at least 0.5 µM.

`O=C(NCc1cc(-c2ccc(Nc3ccccc3)cc2)no1)c1ccc(Cl)s1` [Example 250, 5-Chloro-thiophene-2-carboxylic acid [3-(4-phenylamino-phenyl)-isoxazol-5-ylmethyl]-amide] had an IC50 of at least 0.5 µM.

The compound `COc1ccc(Nc2ccc(-c3cc(CNC(=O)c4ccc(Cl)s4)on3)cc2)cc1` [Example 251, 5-Chloro-thiophene-2-carboxylic acid {3-[4-(4-methoxy-phenylamino)-phenyl]-isoxazol-5-ylmethyl}-amide] showed an IC50 of at least 0.5 µM.

Compound `O=C(NCc1cc(-c2ccc(Nc3ccccn3)cc2)no1)c1ccc(Cl)s1` [Example 252, 5-Chloro-thiophene-2-carboxylic acid {3-[4-(pyridin-2-ylamino)-phenyl]-isoxazol-5-ylmethyl}-amide] returned an IC50 of at least 0.5 µM.

As for `O=C(NCc1cc(-c2ccc(Nc3cccnc3)cc2)no1)c1ccc(Cl)s1` [Example 253, 5-Chloro-thiophene-2-carboxylic acid {3-[4-(pyridin-3-ylamino)-phenyl]-isoxazol-5-ylmethyl}-amide], the half-inhibitory concentration (IC50) is at most 0.1 µM.

The compound `O=C(NCc1cc(-c2ccc(Nc3ccncc3)cc2)no1)c1ccc(Cl)s1` [Example 254, 5-Chloro-thiophene-2-carboxylic acid {3-[4-(pyridin-4-ylamino)-phenyl]-isoxazol-5-ylmethyl}-amide] displayed an IC50 of at most 0.1 µM.

Regarding `CN(c1ccncc1)c1ccc(-c2cc(CNC(=O)c3ccc(Cl)s3)on2)cc1` [Example 255, 5-Chloro-thiophene-2-carboxylic acid {3-[4-(methyl-pyridin-4-yl-amino)-phenyl]-isoxazol-5-ylmethyl}-amide], the 50% inhibitory concentration (IC50) is at least 0.5 µM.

`O=C(NCc1cc(-c2ccc(N3CCCC3)cc2)no1)c1ccc(Cl)s1` [Example 256, 5-Chloro-thiophene-2-carboxylic acid [3-(4-pyrrolidin-1-yl-phenyl)-isoxazol-5-ylmethyl]-amide] came in with an IC50 of at least 0.5 µM.

On to `O=C(NCc1cc(-c2ccc(N3CCOCC3)cc2)no1)c1ccc(Cl)s1` [Example 257, 5-Chloro-thiophene-2-carboxylic acid [3-(4-morpholin-4-yl-phenyl)-isoxazol-5-ylmethyl]-amide], for which the IC50 is at least 0.5 µM.

For `O=C(NCc1cc(-c2ccc(NCc3ccccc3)cc2)no1)c1ccc(Cl)s1` [Example 258, 5-Chloro-thiophene-2-carboxylic acid [3-(4-benzylamino-phenyl)-isoxazol-5-ylmethyl]-amide], the IC50 was at least 0.5 µM.

For `CN1CCC(Nc2ccc(-c3cc(CNC(=O)c4ccc(Cl)s4)on3)cc2)CC1` [Example 259, 5-Chloro-thiophene-2-carboxylic acid {3-[4-(1-methyl-piperidin-4-ylamino)-phenyl]-isoxazol-5-ylmethyl}-amide], the IC50 was at least 0.5 µM.

As for `COC(=O)c1ccccc1Nc1ccc(C2=NOC(CNC(=O)c3ccc(Cl)s3)C2)cc1` (stereo not drawn) [Example 260, 2-[4-(5-{[(5-Chloro-thiophene-2-carbonyl)-amino]-methyl}-4,5-dihydro-isoxazol-3-yl)-phenylamino]-benzoic acid methyl ester], the IC50 was at least 0.5 µM.

As to `COC(=O)c1cccc(Nc2ccc(C3=NOC(CNC(=O)c4ccc(Cl)s4)C3)cc2)c1` (stereo not drawn) [Example 261, 3-[4-(5-{[(5-Chloro-thiophene-2-carbonyl)-amino]-methyl}-4,5-dihydro-isoxazol-3-yl)-phenylamino]-benzoic acid methyl ester], the 50% inhibitory concentration (IC50) is at least 0.5 µM.

The compound `COC(=O)c1ccc(Nc2ccc(C3=NOC(CNC(=O)c4ccc(Cl)s4)C3)cc2)cc1` (stereo not drawn) [Example 262, 4-[4-(5-{[(5-Chloro-thiophene-2-carbonyl)-amino]-methyl}-4,5-dihydro-isoxazol-3-yl)-phenylamino]-benzoic acid methyl ester] registered an IC50 of at least 0.5 µM.

For the compound `O=C(NCC1CC(c2cccc(-c3ccccc3CN3CCCC3)c2)=NO1)c1ccc(Cl)s1` (stereo not drawn) [Example 263, 5-Chloro-thiophene-2-carboxylic acid [3-(2′-pyrrolidin-1-ylmethyl-biphenyl-3-yl)-4,5-dihydro-isoxazol-5-ylmethyl]-amide], the IC50 is at least 0.5 µM.

`CN(C)Cc1cccc(-c2cccc(C3=NOC(CNC(=O)c4ccc(Cl)s4)C3)c2)c1` (stereo not drawn) [Example 264, 5-Chloro-thiophene-2-carboxylic acid [3-(3′-dimethylaminomethyl-biphenyl-3-yl)-4,5-dihydro-isoxazol-5-ylmethyl]-amide] gave an IC50 of at least 0.5 µM.

The compound `O=C(NCC1CC(c2cccc(-c3cccc(CN4CCCC4)c3)c2)=NO1)c1ccc(Cl)s1` (stereo not drawn) [Example 265, 5-Chloro-thiophene-2-carboxylic acid [3-(3′-pyrrolidin-1-ylmethyl-biphenyl-3-yl)-4,5-dihydro-isoxazol-5-ylmethyl]-amide] displayed an IC50 of at least 0.5 µM.

Take `CN(C)Cc1ccc(-c2cccc(C3=NOC(CNC(=O)c4ccc(Cl)s4)C3)c2)cc1` (stereo not drawn) [Example 266, 5-Chloro-thiophene-2-carboxylic acid [3-(4′-dimethylaminomethyl-biphenyl-3-yl)-4,5-dihydro-isoxazol-5-ylmethyl]-amide]: the half-maximal inhibitory concentration (IC50) was at least 0.5 µM.

In turn, `O=C(NCC1CC(c2cccc(-c3ccc(CN4CCCC4)cc3)c2)=NO1)c1ccc(Cl)s1` (stereo not drawn) [Example 267, 5-Chloro-thiophene-2-carboxylic acid [3-(4′-pyrrolidin-1-ylmethyl-biphenyl-3-yl)-4,5-dihydro-isoxazol-5-ylmethyl]-amide] gave an IC50 of at least 0.5 µM.

Consider `CN(C)Cc1ccccc1-c1cccc(-c2cc(CNC(=O)c3ccc(Cl)s3)on2)c1` [Example 268, 5-Chloro-thiophene-2-carboxylic acid [3-(T-dimethylaminomethyl-biphenyl-3-yl)-isoxazol-5-ylmethyl]-amide], for which the IC50 is at least 0.5 µM.

For the origin of these results see patent US8377974B2 (Millennium Pharmaceuticals, Inc., priority 2004, dated 2013).
